Measurements reported in patent US20120070411A1, “SUBSTITUTED NUCLEOTIDE ANALOGS” (Alios BioPharma, Inc., priority 2010, published 2012).

The molecules below were run on Huh-7 cells containing the self-replicating, subgenomic HCV replicon (assay: HCV replicon assay (luciferase reporter, 72 h)). Settings: Hepatitis C virus, Huh-7, 72 h, read-out: HCV Replicon Activity (EC50).
Type: cell-based
Protocol: Huh-7 cells containing the self-replicating, subgenomic HCV replicon with a stable luciferase (LUC) reporter were cultured in Dulbecco's modified Eagle's medium (DMEM) containing 2 mM L-glutamine and supplemented with 10% heat-inactivated fetal bovine serum (FBS), 1% penicillin-streptomyocin, 1% nonessential amino acids, and 0.5 mg/ml G418.
On the first day, 5,000 HCV replicon cells were plated per well in a 96-well plate. On the following day, test compounds were solubilized in 100% DMSO to 100× the desired final testing concentration. Each compound was then serially diluted (1:3) up to 9 different concentrations. Compounds in 100% DMSO are reduced to 10% DMSO by diluting 1:10 in cell culture media. The compounds were diluted to 10% DMSO with cell culture media, which were used to dose the HCV replicon cells in 96-well format. The final DMSO concentration was 1%. The HCV replicon cells were incubated at 37° C. for 72 hours. At 72 hours, cells were processed when the cells are still subconfluent. Compounds that reduce the LUC signal are determined by Bright-Glo Luciferase Assay (Promega, Madison, Wis.). % Inhibition was determined for each compound concentration in relation to the control cells (untreated HCV replicon) to calculate the EC50.
`CCC(=O)O[C@H]1[C@@H](OC(=O)CC)[C@H](n2cnc3c(N)ncnc32)O[C@@H]1[C@H](C)OP(=O)(N[C@@H](C)C(=O)OC(C)C)Oc1ccccc1` (stereo partly drawn) [A14, 2′,3′-O-dipropionyl-5′(S)—C-methyladenosine 5′-[phenyl(isopropoxy-L-alaninyl)]phosphate] gave an EC50 of less than 1 µM. `COC(=O)[C@H](C)NP(=O)(Oc1ccccc1)O[C@@H](C)[C@H]1O[C@@H](n2cnc3c(N)ncnc32)[C@H](O)[C@@H]1O` (stereo partly drawn) [A15, 5′(S)—C-methyladenosine 5′-[phenyl(methoxy-L-alaninyl)]phosphate] showed an EC50 of less than 30 µM. With `COC(=O)[C@H](C)NP(=O)(Oc1ccccc1)O[C@@H](C)[C@H]1O[C@@H](n2cnc3c(N)ncnc32)[C@@H]2OC(=O)O[C@@H]21` (stereo partly drawn) [A16, 2′,3′-O-carbonyl-5′(S)—C-methyladenosine 5′-[phenyl(methoxy-L-alaninyl)]phosphate] the EC50 was less than 30 µM. `CCC(=O)O[C@H]1[C@@H](OC(=O)CC)[C@H](n2cnc3c(N)ncnc32)O[C@@H]1[C@H](C)OP(=O)(N[C@@H](C)C(=O)OCC(C)(C)C)Oc1ccccc1` (stereo partly drawn) [A17, 2′,3′-O-dipropionyl-5′(S)—C-methyladenosine 5′-[phenyl(neopentoxy-L-alaninyl)]phosphate] showed an EC50 of less than 1 µM. In the case of `CCOC(=O)[C@H](C)NP(=O)(Oc1cccc2ccccc12)O[C@@H](C)[C@H]1O[C@@H](n2cnc3c(N)ncnc32)[C@H](O)[C@@H]1O` (stereo partly drawn) [A19, 5′(S)—C-methyladenosine 5′-[1-naphthyl(ethoxy-L-alaninyl)]phosphate], the EC50 is reported as less than 1 µM. With `CC(C)OC(=O)[C@H](C)NP(=O)(Oc1cccc2ccccc12)O[C@@H](C)[C@H]1O[C@@H](n2cnc3c(N)ncnc32)[C@H](O)[C@@H]1O` (stereo partly drawn) [A20, 5′(S)—C-methyladenosine 5′-[1-naphthyl(isopropoxy-L-alaninyl)]phosphate] the EC50 was less than 1 µM. `C[C@H](NP(=O)(Oc1cccc2ccccc12)O[C@@H](C)[C@H]1O[C@@H](n2cnc3c(N)ncnc32)[C@H](O)[C@@H]1O)C(=O)OCc1ccccc1` (stereo partly drawn) [A21, 5′(S)—C-methyladenosine 5′-[1-naphthyl(benzyloxy-L-alaninyl)]phosphate] was tested, and the EC50 was less than 1 µM. For `CCC(=O)O[C@H]1[C@@H](OC(=O)CC)[C@H](n2cnc3c(N)ncnc32)O[C@@H]1[C@H](C)OP(=O)(N[C@@H](C)C(=O)OC(C)C)Oc1cccc2ccccc12` (stereo partly drawn) [A22, 2′,3′-O-dipropionyl-5′-(S)—C-methyladenosine 5′-[1-naphthyl(isopropoxy-L-alaninyl)]phosphate], the EC50 was less than 1 µM. In the case of `CC(C)OC(=O)[C@H](C)NP(=O)(Oc1cccc2ccccc12)O[C@@H](C)[C@H]1O[C@@H](n2cnc3c(N)ncnc32)[C@@H]2OC(=O)O[C@@H]21` (stereo partly drawn) [A23, 2′,3′-O-carbonyl-5(S)—C-methyladenosine 5′-[1-naphthyl(isopropoxy-L-alaninyl)]phosphate], the EC50 is reported as less than 1 µM. With `CC[C@H](OP(=O)(N[C@@H](C)C(=O)OC(C)C)Oc1ccccc1)[C@H]1O[C@@H](n2cnc3c(N)ncnc32)[C@H](O)[C@@H]1O` (stereo partly drawn) [A24, 5′(S)—C-ethyladenosine 5′-[phenyl(isopropoxy-L-alaninyl)]phosphate] the EC50 was less than 100 µM. In the case of `CC[C@@H](OP(=O)(N[C@@H](C)C(=O)OC(C)C)Oc1ccccc1)[C@H]1O[C@@H](n2cnc3c(N)ncnc32)[C@H](O)[C@@H]1O` (stereo partly drawn) [A25, 5′(R)—C-ethyladenosine 5′-[phenyl(isopropoxy-L-alaninyl)]phosphate], the EC50 is reported as less than 1000 µM. `CC(C)OC(=O)[C@H](C)NP(=O)(Oc1ccccc1)O[C@H]([C@H]1O[C@@H](n2cnc3c(N)ncnc32)[C@H](O)[C@@H]1O)C(F)(F)F` (stereo partly drawn) [A26, 5′(S)—C-trifluoromethyladenosine 5′-[phenyl(isopropoxy-L-alaninyl)]phosphate] showed an EC50 of less than 100 µM. For `CC(C)OC(=O)[C@H](C)NP(=O)(Oc1ccccc1)O[C@@H]([C@H]1O[C@@H](n2cnc3c(N)ncnc32)[C@H](O)[C@@H]1O)C(F)(F)F` (stereo partly drawn) [A27, 5′(R)—C-trifluoromethyladenosine 5′-[phenyl(isopropoxy-L-alaninyl)]phosphate], the EC50 was less than 30 µM. `CC(NP(=O)(Oc1ccccc1Cl)OC(C)C1OC(n2cnc3c(N)ncnc32)[C@H](O)[C@@H]1O)C(=O)OC1CCCCC1` (stereo partly drawn) [A28, 5′(S)—C-methyladenosine 5′-[2-chlorophenyl(cyclohexoxy-L-alaninyl)]phosphate] showed an EC50 of less than 1 µM. `C[C@H](NP(=O)(Oc1ccc(F)c(Cl)c1)O[C@@H](C)[C@H]1O[C@@H](n2cnc3c(N)ncnc32)[C@H](O)[C@@H]1O)C(=O)OC1CCCCC1` (stereo partly drawn) [A29] gave an EC50 of less than 1 µM. Work on `Cc1ccc(OP(=O)(N[C@@H](C)C(=O)OC2CCCCC2)O[C@@H](C)[C@H]2O[C@@H](n3cnc4c(N)ncnc43)[C@H](O)[C@@H]2O)cc1` (stereo partly drawn) [A30] yielded an EC50 of less than 1 µM. `C[C@H](NP(=O)(Oc1ccc(Cl)cc1)O[C@@H](C)[C@H]1O[C@@H](n2cnc3c(N)ncnc32)[C@H](O)[C@@H]1O)C(=O)OC1CCCCC1` (stereo partly drawn) [A32] was tested, and the EC50 was less than 1 µM. In the case of `COc1ccc(OP(=O)(N[C@@H](C)C(=O)OC2CCCCC2)O[C@@H](C)[C@H]2O[C@@H](n3cnc4c(N)ncnc43)[C@H](O)[C@@H]2O)cc1` (stereo partly drawn) [A33], the EC50 is reported as less than 1 µM. Work on `CC[C@H](NP(=O)(Oc1ccccc1)O[C@@H](C)[C@H]1O[C@@H](n2cnc3c(N)ncnc32)[C@H](O)[C@@H]1O)C(=O)OC1CCCCC1` (stereo partly drawn) [A34] yielded an EC50 of less than 1 µM. `C[C@H](NP(=O)(Oc1cccnc1)O[C@@H](C)[C@H]1O[C@@H](n2cnc3c(N)ncnc32)[C@H](O)[C@@H]1O)C(=O)OC1CCCCC1` (stereo partly drawn) [A36] showed an EC50 of less than 30 µM. For `Cc1ccccc1OP(=O)(N[C@@H](C)C(=O)OC1CCCCC1)O[C@@H](C)[C@H]1O[C@@H](n2cnc3c(N)ncnc32)[C@H](O)[C@@H]1O` (stereo partly drawn) [A37], the EC50 was less than 1 µM. `CCC[C@H](NP(=O)(Oc1ccccc1)O[C@@H](C)[C@H]1O[C@@H](n2cnc3c(N)ncnc32)[C@H](O)[C@@H]1O)C(=O)OC1CCCCC1` (stereo partly drawn) [A38] gave an EC50 of less than 1 µM. Work on `CC(C)[C@H](NP(=O)(Oc1ccccc1)O[C@@H](C)[C@H]1O[C@@H](n2cnc3c(N)ncnc32)[C@H](O)[C@@H]1O)C(=O)OC1CCCCC1` (stereo partly drawn) [A39] yielded an EC50 of less than 1 µM. In the case of `CC(C)C[C@H](NP(=O)(Oc1ccccc1)O[C@@H](C)[C@H]1O[C@@H](n2cnc3c(N)ncnc32)[C@H](O)[C@@H]1O)C(=O)OC1CCCCC1` (stereo partly drawn) [A40], the EC50 is reported as less than 1 µM. `CSCC[C@H](NP(=O)(Oc1ccccc1)O[C@@H](C)[C@H]1O[C@@H](n2cnc3c(N)ncnc32)[C@H](O)[C@@H]1O)C(=O)OC1CCCCC1` (stereo partly drawn) [A41] gave an EC50 of less than 1 µM. Work on `C[C@H](OP(=O)(N[C@@H](Cc1ccccc1)C(=O)OC1CCCCC1)Oc1ccccc1)[C@H]1O[C@@H](n2cnc3c(N)ncnc32)[C@H](O)[C@@H]1O` (stereo partly drawn) [A42] yielded an EC50 of less than 30 µM. With `C[C@H](OP(=O)(NCC(=O)OC1CCCCC1)Oc1ccccc1)[C@H]1O[C@@H](n2cnc3c(N)ncnc32)[C@H](O)[C@@H]1O` (stereo partly drawn) [A43] the EC50 was less than 1 µM. In the case of `CC(C)OC(=O)[C@H](C)NP(=O)(Oc1cccc2ccccc12)O[C@@H](C)[C@H]1O[C@@H](n2ccc(N)nc2=O)[C@H](O)[C@@H]1O` (stereo partly drawn) [C2, 5′(S)—C-methylcytidine-[naphthyl(isopropoxy-L-alaninyl)]phosphate], the EC50 is reported as less than 100 µM. In the case of `COC(=O)[C@H](C)NP(=O)(Oc1ccccc1)O[C@@H](C)[C@H]1O[C@@H](n2ccc(N)nc2=O)[C@H](O)[C@@H]1O` (stereo partly drawn) [C6, 5′(S)—C-Methylcytidine 5′-[phenyl(methoxy-L-alaninyl)]phosphate], the EC50 is reported as less than 100 µM. For `CC(C)OC(=O)[C@H](C)NP(=O)(Oc1ccccc1)O[C@@H](C)[C@H]1O[C@@H](n2ccc(N)nc2=O)[C@H](O)[C@@H]1O` (stereo partly drawn) [C8, 5′(S)—C-methylcytidine 5′-[phenyl(isopropoxy-L-alaninyl)]phosphate], the EC50 was less than 100 µM.
